In patent US20220411495A1, “POSITIVE ALLOSTERIC MODULATORS OF THE CALCIUM-SENSING RECEPTOR” (VIB VZW, priority 2019, published 2022):
Positions count from the first letter of the chain named.

T1: loss-of-function mutant CaSR Q459R (Homo sapiens, UniProt P41180, Q459R)
T1 construct: expressed in transfected cells
T1 sequence (P41180 20-1078 Q459R): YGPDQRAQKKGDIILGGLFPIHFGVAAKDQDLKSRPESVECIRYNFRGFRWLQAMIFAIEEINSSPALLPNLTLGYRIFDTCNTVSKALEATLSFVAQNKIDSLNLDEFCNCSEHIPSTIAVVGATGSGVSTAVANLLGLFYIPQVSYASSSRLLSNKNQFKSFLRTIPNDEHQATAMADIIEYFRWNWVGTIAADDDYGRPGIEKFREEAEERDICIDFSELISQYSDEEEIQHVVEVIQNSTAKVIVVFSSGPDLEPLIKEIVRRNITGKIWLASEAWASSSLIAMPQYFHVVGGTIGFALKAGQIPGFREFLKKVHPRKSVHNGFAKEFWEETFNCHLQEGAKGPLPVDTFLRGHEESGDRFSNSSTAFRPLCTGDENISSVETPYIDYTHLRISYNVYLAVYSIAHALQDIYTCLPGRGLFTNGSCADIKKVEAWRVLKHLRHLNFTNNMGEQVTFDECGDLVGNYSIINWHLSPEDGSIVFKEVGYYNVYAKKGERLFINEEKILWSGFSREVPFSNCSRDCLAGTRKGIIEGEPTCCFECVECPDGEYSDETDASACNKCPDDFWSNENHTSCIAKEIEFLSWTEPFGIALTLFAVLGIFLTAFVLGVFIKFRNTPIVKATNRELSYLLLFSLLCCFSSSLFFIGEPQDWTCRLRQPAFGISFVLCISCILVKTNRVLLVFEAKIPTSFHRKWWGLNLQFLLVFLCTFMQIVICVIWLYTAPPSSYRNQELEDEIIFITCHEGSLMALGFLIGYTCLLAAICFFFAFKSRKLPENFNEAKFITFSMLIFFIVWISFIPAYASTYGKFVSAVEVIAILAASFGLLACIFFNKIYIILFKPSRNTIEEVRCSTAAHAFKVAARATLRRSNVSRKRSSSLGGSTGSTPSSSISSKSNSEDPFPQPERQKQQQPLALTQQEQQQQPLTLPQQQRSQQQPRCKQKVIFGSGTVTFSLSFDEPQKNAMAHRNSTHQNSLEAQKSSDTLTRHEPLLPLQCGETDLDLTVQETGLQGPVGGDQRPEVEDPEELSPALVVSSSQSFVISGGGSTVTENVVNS

T2: CaSR 7-transmembrane domain allosteric binding site (Homo sapiens, UniProt P41180)
T2 sequence (P41180 20-1078): T1 sequence (P41180 20-1078 Q459R) with R440Q

B1: Nb4: llama-derived CaSR-specific nanobody acting as PAM, SEQ ID NO:5 (protein)
VHH: QVQLVESGGGLVQAGGSLRLSCAASGRTFSTYRMGWFRQGLGKEREFVAAITANGVRTFYTDSVKGRFTISRDNAKNTLYLQMNSLQPDDTAVYLCAARRKGIFTVQQAQDITDWDYWGQGTQVTVSS
modifications: CaSR Nb4

Assays:
[1] = target: T1, loss-of-function mutant CaSR Q459R; experiment: IP1 accumulation assay, Ca2+ concentration-response curve of CaSR Q459R; assay type: cell-based; settings: preliminary experiment; for Concentration at which the PAM effect is initiated: Ca2+ concentration-response curve; for Effect on potency for Ca2+ in CaSR Q459R: increasing PAM concentrations
Experimental: In comparison with loss-of-function mutant S170A, Q459R is a naturally occurring loss-of-function mutant that has previously been associated with familial hypocalciuric hypercalcemia (FHH). The effect of increasing concentrations of CaSR Nb4 or the clinically used PAM cinacalcet on the Ca^2+ concentration-response curve were measured with the IP1 accumulation assay. […] The PAM effect of CaSR Nb4 (0.04 μM) is initiated at a much lower concentration than for cinacalcet (5 μM).
Inositol monophosphate (IP1) accumulation was measured using the commercially available HTRF® IP1 accumulation kit (Cisbio Bioassays, Codolet, France) and an EnVision multimode plate reader (PerkinElmer, Waltham, Mass., USA). Unless stated otherwise, the cells were washed once with 100 μL/well assay buffer and stimulated for 30 minutes at 37° C. with 50 μL/well ligand(s) diluted in assay buffer supplemented with 20 mM LiCl. Following stimulation, the cells were washed once with 100 μL/well and lysed for 30 minutes at room temperature with 30 μL/well lysis buffer provided with the kit. The lysed cells were diluted 1:2 with assay buffer after which 10 μL/well was pipetted to a white 384-well OptiPlate (PerkinElmer, Waltham, Mass., USA). Next, 10 μL of a detection solution consisting of 2.5% IP1-d2 conjugate and 2.5% anti-IP1 antibody diluted in assay buffer was added to each well. Fluorophore emissions were measured after the plate was stored in the dark for 1 h. The 615/665 nm emission ratios measured upon excitation at 340 nm were converted to IP1 concentrations with an IP1 standard curve according to the manufacturer's instructions.

[2] = target: T2, CaSR 7-transmembrane domain allosteric binding site; experiment: [3H]evocalcet radioligand displacement
Experimental: For the seven different nanobodies with potencies in the 10 to 600 nM range, further characterization of their recognition site on the CaSR antigen was performed, since the identification of the nanobody binding-sites at the CaSR is key to understand their interaction and mode-of-action at a molecular and structural level, and will further aid in the development of second-generation nanobodies with enhanced pharmacological parameters. Nanobodies belonging to each family of the five different nanobody families are expected to interact with distinct regions of the CaSR.

| Molecule | Concentration at which the PAM effect is initiated [1] [µM] | Effect on potency for Ca2+ in CaSR Q459R [1] | Displacement of [3H]evocalcet binding [2] |
| --- | --- | --- | --- |
| C[C@@H](NCCCc1cccc(C(F)(F)F)c1)c1cccc2ccccc12 [cinacalcet, reference compound] | 5 | able to increase the potency for Ca^2+ | did displace |
| B1 | 0.04 | able to increase the potency for Ca^2+ | do not displace |
